From ChEMBL document CHEMBL3507680, “University of Dundee, Gates Library screen for HepG2 cell viability”

test: Human HepG2 cell viability assay in 384 well format; format: toxicity, cell-based; set-up: dose 125 nL, time 70.5 hour; concentration not given beside the values; settings: HepG2 cells, read-out: Inhibition

Structure (SMILES) | cytotoxicity at 70.5 h
CCc1csc(C2CCCN(C(=O)c3ccco3)C2)n1 (stereo not drawn) | 17.1%
Cc1nnc([C@@]23CCO[C@@H]2CCN(Cc2cccc4ccccc24)C3)o1 | -6.43%
Cc1nc(C2CCCN2Cc2ccn(C)c(=O)c2)no1 (stereo not drawn) | 0.568%
O=C(c1ccoc1)N1CC[C@H]2[C@H]1CCN2S(=O)(=O)C1CC1 | 13.5%
O=C(NCCc1cscn1)c1coc(CN2CCOCC2)c1 | -8.02%
CN(C)C(=O)CCC1CCCN(Cc2cccc(-c3ccccn3)c2)C1 (stereo not drawn) | 12.2%
CC(=O)Nc1cc(CN(C)C)ccc1C | -6.9%
CN(Cc1ccccn1)C1CCC[C@@H]2CN(CC3CC3)C[C@H]12 (stereo partly drawn) | 17.7%
Cc1nnc(CN2CCCC2c2c(C)nn(C)c2Cl)o1 (stereo not drawn) | -11.6%
O=c1[nH]c2ncccc2n1C1CCCCC1 | -6.95%
CCN(CC1CCOC1)C(=O)c1ccc(N2CCOCC2)c(F)c1 (stereo not drawn) | -6.24%
Cc1cccc(NC(=O)CCNCc2c(C)nn(C)c2N(C)C)n1 | 2.77%
COCCN1CCN(Cc2ccc(Cl)cc2)[C@H]2CS(=O)(=O)C[C@H]21 | 0.00609%
Cc1n[nH]c(C)c1C1CCCN1C(=O)NCCSC(C)(C)C (stereo not drawn) | -7.87%
COc1ccccc1CNC(=O)Cn1nc(-c2ccc(F)cc2)oc1=O | 10.9%
Cc1ccc(C(=O)N2CCN(Cc3ccsc3)CC2)n1C | -7.84%
Cc1nc2ccccc2n1CCNCc1cccc(C#N)c1 | -14.8%
CCn1ncc(S(=O)(=O)N2CCCC3(CC=CNC3=O)C2)c1C (stereo not drawn) | -1.6%
Cc1ccc(CN2CCC3(CC2)CC(N2CCN(C)CC2)CO3)s1 (stereo not drawn) | -9.14%
O=C(CCc1cc2n(n1)CCCN(C(=O)[C@H]1CCCO1)C2)NC1CC1 | 3.28%
O=C(CCN1C(=O)CCC1=O)Nc1ccc(OCC(F)(F)F)nc1 | -0.0202%
CCOCC(=O)NC1(c2cccc(Cl)c2)CC1 | -8.22%
CNC(=O)c1cccnc1N1CCN(C/C=C/c2ccccc2)CC1 | 6.62%

Structure (SMILES) | cytotoxicity at 70.5 h
Cc1ccc(NC2CCN(C(=O)CCc3ccncc3)CC2)nn1 | -7.44%
CNC(=O)CCNC(=O)c1cc(Br)c2c(c1)OCCO2 | -6.67%
Cc1c[nH]nc1C1CCN(c2cnccn2)C1 (stereo not drawn) | 5.06%
CCn1ncnc1C(NC(=O)CC1CCN(C(C)C)CC1)C1CC1 (stereo not drawn) | 13.7%
CCc1nnsc1C(=O)N1CCCC(n2nc(C)nc2C)C1 (stereo not drawn) | -3.17%
NCCC(=O)Nc1ccc(-c2ccccc2)cc1 | -5.02%
CC(OCC1CC1)C(=O)N1CCCN(Cc2cscn2)CC1 (stereo not drawn) | 1.88%
CCOCCN1CCN(CCC(=O)N2CCCCC2)CC1C (stereo not drawn) | -0.119%
CC1=C(C#N)C(=O)NC(=O)/C1=C\c1c(C)nn(-c2ccc(Cl)cc2)c1O | -6.07%
O=C(CN1CCCCC1)N1CCC(c2cc(=O)n3c(n2)CCCCC3)C1 (stereo not drawn) | -1.74%
CCC(CC)c1cc(CNC(=O)N2CCCC(N(C)C)C2)on1 (stereo not drawn) | -9.56%
COc1cccc(CNC(=O)N2CCN3CCNC(=O)C3C2)c1 (stereo not drawn) | -10.4%
CN1[C@H](Cn2cncn2)C[C@@H]2CN(Cc3cccc(C#N)c3)CC[C@@H]21 | -6.46%
c1ccc2sc(N3CCCC(Cn4cncn4)C3)nc2c1 (stereo not drawn) | -6.17%
CCS(=O)(=O)CCN(CC1CCCO1)C1CCCC1 (stereo not drawn) | -2.46%
CNC(=O)N1C[C@H]2C[C@H](C(=O)Nc3cccnc3)[C@@H](C1)O2 | -2.82%
COc1cccc2[nH]c(C(=O)N3CCNCC3C(N)=O)cc12 (stereo not drawn) | 10.8%
Cc1cnc(N2CC[C@@]3(O)CCCC[C@H]3C2)nc1-c1ccnn1C | -7.52%
Cc1nc(CCN(C)C(=O)CN2C(=O)OC[C@@H]2c2ccccc2)no1 | -4.02%
COc1ccccc1CN(CC1CCCO1)C(=O)c1csnn1 (stereo not drawn) | -12.2%
Cc1cc(CN(C)Cc2ncc(C(C)(C)C)o2)no1 | 18.2%
O=S(=O)(Cc1ccccc1)NCc1nnc2n1CCC2 | -22.1%
Cc1cccc(N2CC[C@@H]3[C@@H](CO[C@H]3CNS(C)(=O)=O)C2)n1 | 10.6%

Structure (SMILES) | cytotoxicity at 70.5 h
Cc1ccc(-c2ncc(C(=O)NS(C)(=O)=O)s2)c(C)c1 | -1.13%
Cc1nc(C2CCCN2C(=O)COc2ccccc2)ncc1C(N)=O (stereo not drawn) | -4.1%
CN(C)CC(=O)N1C[C@@H](Oc2ccccn2)[C@H]2OCCC[C@H]21 | 9.63%
O=C(c1cc2cc(I)ccc2[nH]1)N1CCC(Nc2cccnn2)CC1 | 1.42%
CC1(C(=O)NC2CCCC2)CCCN(c2cnccn2)C1 (stereo not drawn) | -6.96%
CCc1cnc(N)nc1NCCC(=O)NC1CCCCC1 | -25.4%
Cc1cnc(N2CCC3(CC2)CN(c2ccsc2)C(=O)CO3)nc1 | -5%
Cc1noc(C)c1C1CCCN1C(=O)CN1CC2(CCNCC2)OC1=O (stereo not drawn) | 19.7%
CC(CCc1cccn1C)NC(=O)Nc1cccn(C)c1=O (stereo not drawn) | -10.4%
CCc1nsc(NC2CC(=O)N(C3CC3)C2)n1 (stereo not drawn) | -0.811%
CCC(C(=O)N1CCCSCC1)N1CCCC1=O (stereo not drawn) | 12.1%
Cn1ccnc1CN1CCN2C[C@H](Oc3cncnc3)C[C@H]2C1 | 0.558%
CN(C)c1cc(N2CCN(c3ccccn3)CC2)ncn1 | 22.1%
Cc1cccc(N2CCN(C(=O)CCc3c(C)noc3Cl)CC2)c1 | -8.69%
NC(=O)c1cn[nH]c1NC(=O)c1ccc2c(c1)OCO2 | 1.1%
COCCc1noc(CNC(C)(CO)C2CCCCC2)n1 (stereo not drawn) | -0.882%
O=C(c1cnccn1)N1CCOCC2(CCN(C3CCOCC3)C2)C1 (stereo not drawn) | -15.5%
O=C(c1nc2c(s1)CCCN2C(=O)C1CC1)N1CCCC1 | -3.91%
CN(C(=O)Cn1nc(-c2ccc(F)cc2)ccc1=O)C1CCS(=O)(=O)C1 (stereo not drawn) | -0.171%
C[C@H](NC(=O)C1CCCC1)c1nc2cc(-c3ccc(F)cc3)ncn2n1 | 4.97%
CS(=O)(=O)N1CCN(Cc2ccc(F)cc2Br)CC1 | -9.98%
COc1ccc(N(c2ccc(C)cc2)c2ccc(C(=O)O)s2)cc1 | -0.995%
c1ccc(CCN2C[C@@H]3OCCN(c4ncccn4)[C@@H]3C2)cc1 | -9.92%

Structure (SMILES) | cytotoxicity at 70.5 h
Cc1cccc(CN2Cc3ncn(C)c3C(COCC(=O)N(C)C)C2)n1 (stereo not drawn) | -3.93%
O=C(c1ccoc1)N1CCc2ncc(Cn3cccn3)n2CC1 | -7.98%
Cc1cc(CN2CC[C@H]3C[C@H](C(=O)N(C)C)O[C@@H]3C2)no1 | -13.6%
COCCCNC(=O)c1nnsc1-c1ccccc1 | -14.7%
COc1ccc(CC(C)(O)CNC(=O)NCc2cccs2)cc1 (stereo not drawn) | -13.9%
Cc1nn(CCO)cc1CN1CCC(C(C)N2CCCC2)CC1 (stereo not drawn) | -3.99%
Cn1cc(CN2CCC[C@]3(C[C@H](Oc4ncccc4F)CO3)C2)cn1 | -5.41%
Cc1ccc(CN2CCC(c3nnc(CN4CCCCC4)n3C)CC2)o1 | -5.72%
Cc1nn(C)c2cnn(Cc3ccc(C(=O)NC4CC4)o3)c12 | -1.57%
Cc1ccsc1CN(CCCO)Cc1nc2ccccc2[nH]1 | -1.23%
Cc1ccc(C(=O)N2CCC(n3cc(CN)nn3)CC2)cc1F | -5.32%
N#CCCCOc1cccnc1NC(=O)Cc1ccccc1F | 0.586%
Cc1cc(-c2cccnc2)nc(C2CCCN2S(C)(=O)=O)n1 (stereo not drawn) | -3.42%
O=C(c1ccoc1)N1C[C@@H]2OCCN(c3ncccn3)[C@@H]2C1 | 1.23%
Cc1cc(CN2CCCC2c2c(C)nn(C)c2Cl)no1 (stereo not drawn) | 4.73%
Cc1cc(C(=O)N2CCC(c3nccn3Cc3ccncc3)CC2)no1 | 1.65%
CNc1ncccc1CN1CCCCC1c1ccnc(N)n1 (stereo not drawn) | -3.08%
COc1ncccc1CNc1snc(Cl)c1C#N | -103%
Cc1noc(C)c1CN1CC[C@@H](OCC2CC2)[C@@H](Cc2ccccc2)C1 | -4.91%
Cc1cc(C(=O)N2CCn3cc(CN4CCN(C)CC4)nc3C2)no1 | -11.8%
COc1cc(C)c(S(=O)(=O)NCc2cccnc2N(C)C)c(C)c1 | -5.54%
CCC(CO)N(Cc1ccco1)Cc1c(C)nn(C)c1Cl (stereo not drawn) | 3.17%
CNC(=O)c1nc2c(s1)CCN(C(=O)c1ccc(OC)cc1)CC2 | -7.87%

Structure (SMILES) | cytotoxicity at 70.5 h
CCC(C)N(Cc1ccsc1)C(=O)c1ccc2[nH]nnc2c1 (stereo not drawn) | 24.9%
Cc1ccc(CN(CCCn2ccnc2)Cc2cccs2)s1 | 18.6%
Cn1ccnc1CN1C[C@@H](CN2CCCCCC2)[C@@H](CO)C1 | 1.19%
c1ccc(-c2nnc(CNC3CCCN(c4cccnn4)C3)o2)cc1 (stereo not drawn) | -16.9%
CC(C#N)NS(=O)(=O)c1ccc2c(c1)N(C)CCC2 (stereo not drawn) | -0.913%
COCC(=O)N1CCN(C(=O)C2(c3ccc(C)c(OC)c3)CC2)CC1 | -2.36%
Cc1nn(C)cc1NC(=O)CN1CCC(Oc2cnccn2)CC1 | -4.13%
CC(C)OC(=O)N1CCCC2(CCC(=O)N(CCc3c[nH]cn3)C2)C1 (stereo not drawn) | -1.99%
CC(C)C(=O)N1CCCC12CCCN(C(=O)c1ccno1)C2 (stereo not drawn) | 13.3%
CCc1nc2n(n1)CC(NCC(=O)Nc1cc(C)on1)CC2 (stereo not drawn) | 12.5%
Cc1ccn(-c2ccccc2NCc2cccnc2C)n1 | -7.82%
Cc1cccc(CNCC2COC3(CCCCC3)O2)c1C (stereo not drawn) | 34.7%
Cc1nc2c(N3CCC(O)(Cn4ccnc4)CC3)ncnc2o1 | -0.124%
O=C(c1ccccn1)N1CCn2cnc(COCC3CC3)c2C1 | -1.29%
CCc1cc(NC(C)(C)C)nc(N2CCOCC2)n1 | -12%
O=C(NCCNC(=O)C1CC1)c1cnc(-c2ccccc2)nc1 | 16.6%
O=C(c1cccnc1N1CCOC(c2ccc(Cl)cc2)C1)N1CCCC1 (stereo not drawn) | -5.24%
O=C(c1ccco1)N1CC[C@@H]2[C@H]1CCC(=O)N2c1ccccc1 | -15.1%
CNC(=O)N1CCC2(COCc3c(C)nc(NCc4ccco4)nc32)C1 (stereo not drawn) | -6.98%
CCN1CCN(c2nsc(-c3cccnc3)c2C#N)CC1 | -5.08%
Cc1nc(C2(O)CCCNCC2)sc1CCOc1ccccc1F (stereo not drawn) | 2.34%
